Article PMC6979384, “Characterization of the plant homeodomain (PHD) reader family for their histone tail interactions” (Epigenetics & Chromatin, 2020)

Columns and labels:
Assay in all cases: Histone peptide microarray
Type in all cases: binding, human
Conditions in all cases: sheet "Array Heatmap"; GST-tagged reader; histone peptide array, total n = 4
AIRE (PP) = system: AIRE (PP)
Outline: (§1)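 Each reader, produced as a GST fusion and purified, was tested at 0.5 μM on synthetic histone peptides (293 in total) carrying single or combinatorial marks. Intensities averaged over four replicates.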

BAZ2B = system: BAZ2B
Outline: as §1

BPTF (PB) = system: BPTF (PB)
Outline: as §1

CHD4 (PPCC) = system: CHD4 (PPCC)
Outline: as §1

CHD5 (PCC) = system: CHD5 (PCC)
Outline: as §1

CHD5 (PPCC) = system: CHD5 (PPCC)
Outline: as §1

DIDO1 = system: DIDO1
Outline: as §1

DPF2 (PPC2W2) = system: DPF2 (PPC2W2)
Outline: as §1

ING1 = system: ING1
Outline: as §1

ING2 = system: ING2
Outline: as §1

ING3 = system: ING3
Outline: as §1

ING4 = system: ING4
Outline: as §1

ING5 = system: ING5
Outline: as §1

KDM4C (TTP) = system: KDM4C (TTP)
Outline: as §1

KDM5A (1) = system: KDM5A (1)
Outline: as §1

KDM5A (3) = system: KDM5A (3)
Outline: as §1

KDM5B (1) = system: KDM5B (1)
Outline: as §1

KDM5B (3) = system: KDM5B (3)
Outline: as §1

KDM7A = system: KDM7A
Outline: as §1

MLL5 = system: MLL5
Outline: as §1

MORC3 (CW) = system: MORC3 (CW)
Outline: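 Binding read as mean relative signal from 4 replicates; microarray held 293 synthetic histone peptides with single or combinatorial PTMs. Each GST-tagged PHD reader was applied at 0.5 μM using the optimized Petell protocol.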

PHF13 = system: PHF13
Outline: as §1

PHF21A = system: PHF21A
Outline: as §1

PHF23 = system: PHF23
Outline: as §1

PHF2 = system: PHF2
Outline: as §1

PHF8 = system: PHF8
Outline: as §1

PHRF1 (RP) = system: PHRF1 (RP)
Outline: as §1

RAG2 = system: RAG2
Outline: as §1

SP140L = system: SP140L
Outline: as §1

TAF3 = system: TAF3
Outline: as §1

TRIM66 (PB) = system: TRIM66 (PB)
Outline: as §1

Row | Substance | Array Heatmap signal, AIRE (PP) (AIRE (PP)) | Array Heatmap signal, BAZ2B (BAZ2B) | Array Heatmap signal, BPTF (PB) (BPTF (PB)) | Array Heatmap signal, CHD4 (PPCC) (CHD4 (PPCC)) | Array Heatmap signal, CHD5 (PCC) (CHD5 (PCC)) | Array Heatmap signal, CHD5 (PPCC) (CHD5 (PPCC)) | Array Heatmap signal, DIDO1 (DIDO1) | Array Heatmap signal, DPF2 (PPC2W2) (DPF2 (PPC2W2)) | Array Heatmap signal, ING1 (ING1) | Array Heatmap signal, ING2 (ING2) | Array Heatmap signal, ING3 (ING3) | Array Heatmap signal, ING4 (ING4) | Array Heatmap signal, ING5 (ING5) | Array Heatmap signal, KDM4C (TTP) (KDM4C (TTP)) | Array Heatmap signal, KDM5A (1) (KDM5A (1)) | Array Heatmap signal, KDM5A (3) (KDM5A (3)) | Array Heatmap signal, KDM5B (1) (KDM5B (1)) | Array Heatmap signal, KDM5B (3) (KDM5B (3)) | Array Heatmap signal, KDM7A (KDM7A) | Array Heatmap signal, MLL5 (MLL5) | further results
1 | H3R17me1: H3 1-20 [Peptide H3R17me1] | 0.4567 | 0.4823 | 0.345 | 0.598 | 0.834 | 0.5588 | 0.721 | 0.7016 | 0.5598 | 0.6036 | 0.4855 | 0.4637 | 0.3567 | 0.4745 | 0.4728 | 0.5587 | 0.6928 | 0.5296 | 0.3476 | 0.5956 | Array Heatmap signal, MORC3 (CW) (MORC3 (CW)): 0.4904; Array Heatmap signal, PHF13 (PHF13): 0.6124; Array Heatmap signal, PHF21A (PHF21A): 0.4738; Array Heatmap signal, PHF23 (PHF23): 0.5635; Array Heatmap signal, PHF2 (PHF2): 0.5204; Array Heatmap signal, PHF8 (PHF8): 0.3543; Array Heatmap signal, PHRF1 (RP) (PHRF1 (RP)): 0.8251; Array Heatmap signal, RAG2 (RAG2): 0.268; Array Heatmap signal, SP140L (SP140L): 0.359; Array Heatmap signal, TAF3 (TAF3): 0.2696; Array Heatmap signal, TRIM66 (PB) (TRIM66 (PB)): 0.643
2 | H3R17me2a + K18ac (1-25): H3 1-25 | 0.3677 | 0.3556 | 0.2769 | 0.4858 | 0.615 | 0.4057 | 0.5785 | 0.608 | 0.4981 | 0.5776 | 0.4176 | 0.3381 | 0.251 | 0.324 | 0.3724 | 0.5578 | 0.6531 | 0.4124 | 0.2298 | 0.4712 | Array Heatmap signal, MORC3 (CW) (MORC3 (CW)): 0.4929; Array Heatmap signal, PHF13 (PHF13): 0.4521; Array Heatmap signal, PHF21A (PHF21A): 0.3605; Array Heatmap signal, PHF23 (PHF23): 0.4823; Array Heatmap signal, PHF2 (PHF2): 0.4874; Array Heatmap signal, PHF8 (PHF8): 0.2767; Array Heatmap signal, PHRF1 (RP) (PHRF1 (RP)): 0.7492; Array Heatmap signal, RAG2 (RAG2): 0.2079; Array Heatmap signal, SP140L (SP140L): 0.2916; Array Heatmap signal, TAF3 (TAF3): 0.2141; Array Heatmap signal, TRIM66 (PB) (TRIM66 (PB)): 0.6221
3 | H3R17me2a: H3 1-20 [Peptide H3R17me2a] | 0.3243 | 0.3052 | 0.2765 | 0.4461 | 0.5481 | 0.3709 | 0.6933 | 0.5665 | 0.5124 | 0.6139 | 0.3691 | 0.3252 | 0.2247 | 0.2915 | 0.3023 | 0.5532 | 0.4837 | 0.4098 | 0.2428 | 0.5506 | Array Heatmap signal, MORC3 (CW) (MORC3 (CW)): 0.4952; Array Heatmap signal, PHF13 (PHF13): 0.4423; Array Heatmap signal, PHF21A (PHF21A): 0.2924; Array Heatmap signal, PHF23 (PHF23): 0.499; Array Heatmap signal, PHF2 (PHF2): 0.6186; Array Heatmap signal, PHF8 (PHF8): 0.337; Array Heatmap signal, PHRF1 (RP) (PHRF1 (RP)): 0.5177; Array Heatmap signal, RAG2 (RAG2): 0.3136; Array Heatmap signal, SP140L (SP140L): 0.2774; Array Heatmap signal, TAF3 (TAF3): 0.2956; Array Heatmap signal, TRIM66 (PB) (TRIM66 (PB)): 0.5152
4 | H3R17me2s: H3 1-20 [Peptide H3R17me2s] | 0.4113 | 0.4477 | 0.3293 | 0.5449 | 0.7264 | 0.5108 | 0.6492 | 0.6998 | 0.5076 | 0.6161 | 0.447 | 0.4307 | 0.3275 | 0.4268 | 0.4442 | 0.5756 | 0.601 | 0.5222 | 0.306 | 0.5344 | Array Heatmap signal, MORC3 (CW) (MORC3 (CW)): 0.5429; Array Heatmap signal, PHF13 (PHF13): 0.5969; Array Heatmap signal, PHF21A (PHF21A): 0.4345; Array Heatmap signal, PHF23 (PHF23): 0.5417; Array Heatmap signal, PHF2 (PHF2): 0.5815; Array Heatmap signal, PHF8 (PHF8): 0.3293; Array Heatmap signal, PHRF1 (RP) (PHRF1 (RP)): 0.8026; Array Heatmap signal, RAG2 (RAG2): 0.2456; Array Heatmap signal, SP140L (SP140L): 0.3428; Array Heatmap signal, TAF3 (TAF3): 0.274; Array Heatmap signal, TRIM66 (PB) (TRIM66 (PB)): 0.6637
